# Activity calls are given as the source filed them.
# What was measured:
# [1] = target: T1, Replicative DNA helicase DnaB (Mycobacterium tuberculosis, UniProt P9WMR3); experiment: DnaB intein splicing inhibitors, dose response, biochemical, cell-free fluorescence (AID 449749); format: functional
# T1 sequence (P9WMR3 whole entry): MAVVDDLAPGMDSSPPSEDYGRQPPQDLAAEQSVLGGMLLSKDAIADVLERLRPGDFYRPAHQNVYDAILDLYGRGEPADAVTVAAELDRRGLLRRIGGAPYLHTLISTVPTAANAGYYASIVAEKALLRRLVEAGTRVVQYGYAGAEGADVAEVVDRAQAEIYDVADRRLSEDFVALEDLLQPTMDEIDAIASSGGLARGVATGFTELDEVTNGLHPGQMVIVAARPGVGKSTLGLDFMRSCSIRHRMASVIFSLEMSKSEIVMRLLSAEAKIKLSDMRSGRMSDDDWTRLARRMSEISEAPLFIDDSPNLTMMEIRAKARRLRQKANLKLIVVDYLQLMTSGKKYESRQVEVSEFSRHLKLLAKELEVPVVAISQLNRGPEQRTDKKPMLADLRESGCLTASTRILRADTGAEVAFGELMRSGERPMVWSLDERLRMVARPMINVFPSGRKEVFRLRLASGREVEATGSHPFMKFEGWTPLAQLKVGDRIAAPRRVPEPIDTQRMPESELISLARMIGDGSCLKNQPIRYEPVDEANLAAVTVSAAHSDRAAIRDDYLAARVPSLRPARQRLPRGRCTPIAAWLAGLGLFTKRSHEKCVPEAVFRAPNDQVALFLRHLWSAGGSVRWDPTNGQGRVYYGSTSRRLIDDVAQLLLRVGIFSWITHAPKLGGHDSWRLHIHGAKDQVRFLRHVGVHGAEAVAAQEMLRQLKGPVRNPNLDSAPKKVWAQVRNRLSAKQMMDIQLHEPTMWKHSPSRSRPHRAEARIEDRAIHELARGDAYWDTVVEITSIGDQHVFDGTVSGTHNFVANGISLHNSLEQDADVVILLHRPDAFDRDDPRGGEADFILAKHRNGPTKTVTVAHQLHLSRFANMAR
# [2] = inhibitors of intracellular T. cruzi replication, confirmation, NIH3T3 host cells, beta-gal luminescence (AID 2044); format: functional, cell-based;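 note: intracellular parasites grown in NIH/3T3 mouse fibroblasts as host cells; luminescent beta-galactosidase reporter signal from transgenic T. cruzi replicating inside host cells; inhibitors lower the luminescence signal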
# [3] = target: T1, Replicative DNA helicase DnaB; experiment: DnaB Intein secondary assay Measured in Biochemical System Using Plate Reader - 2047-04_Inhibitor_Dose_DryPowder_Activity. [Related pubchem assays (depositor defined):AID2223]
# [4] = target: Phospholipase A2 (Homo sapiens, UniProt P04054); format: functional;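 note: confirmatory dose-response counterscreen on phospholipase A2, testing hits that came from an ultra-high-throughput screen for ATG4B inhibitors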
# Phospholipase A2, sequence (P04054 whole entry): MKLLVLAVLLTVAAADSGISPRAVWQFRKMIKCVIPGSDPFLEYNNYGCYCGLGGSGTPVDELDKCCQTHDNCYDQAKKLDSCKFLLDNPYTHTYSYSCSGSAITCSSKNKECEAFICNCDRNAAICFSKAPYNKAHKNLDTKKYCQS
# [5] = target: Wee1-like protein kinase (Homo sapiens, UniProt P30291); experiment: Navigating the Kinome. Panel member name: WEE1; format: functional
# Wee1-like protein kinase, sequence (P30291 whole entry): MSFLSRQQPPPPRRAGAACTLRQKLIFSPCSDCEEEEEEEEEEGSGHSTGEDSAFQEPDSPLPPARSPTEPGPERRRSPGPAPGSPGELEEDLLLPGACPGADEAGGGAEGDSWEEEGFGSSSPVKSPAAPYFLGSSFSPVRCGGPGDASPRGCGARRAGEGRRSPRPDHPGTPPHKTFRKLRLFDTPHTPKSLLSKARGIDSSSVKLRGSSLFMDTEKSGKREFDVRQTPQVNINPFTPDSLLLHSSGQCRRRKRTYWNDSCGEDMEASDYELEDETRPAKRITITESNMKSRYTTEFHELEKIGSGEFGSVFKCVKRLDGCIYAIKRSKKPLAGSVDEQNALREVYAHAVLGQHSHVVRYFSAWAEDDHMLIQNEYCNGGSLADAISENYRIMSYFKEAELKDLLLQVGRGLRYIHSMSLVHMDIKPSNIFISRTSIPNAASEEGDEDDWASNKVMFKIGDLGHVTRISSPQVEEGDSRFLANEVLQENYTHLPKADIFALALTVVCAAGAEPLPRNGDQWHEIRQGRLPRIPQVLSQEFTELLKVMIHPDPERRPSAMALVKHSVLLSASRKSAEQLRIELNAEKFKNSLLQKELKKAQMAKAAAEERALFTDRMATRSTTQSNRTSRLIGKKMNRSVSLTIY
# [6] = target: Tyrosine-protein kinase Fer (Homo sapiens, UniProt P16591); format: functional;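 note: FER tested as one member of a kinome panel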
# Tyrosine-protein kinase Fer, sequence (P16591 whole entry): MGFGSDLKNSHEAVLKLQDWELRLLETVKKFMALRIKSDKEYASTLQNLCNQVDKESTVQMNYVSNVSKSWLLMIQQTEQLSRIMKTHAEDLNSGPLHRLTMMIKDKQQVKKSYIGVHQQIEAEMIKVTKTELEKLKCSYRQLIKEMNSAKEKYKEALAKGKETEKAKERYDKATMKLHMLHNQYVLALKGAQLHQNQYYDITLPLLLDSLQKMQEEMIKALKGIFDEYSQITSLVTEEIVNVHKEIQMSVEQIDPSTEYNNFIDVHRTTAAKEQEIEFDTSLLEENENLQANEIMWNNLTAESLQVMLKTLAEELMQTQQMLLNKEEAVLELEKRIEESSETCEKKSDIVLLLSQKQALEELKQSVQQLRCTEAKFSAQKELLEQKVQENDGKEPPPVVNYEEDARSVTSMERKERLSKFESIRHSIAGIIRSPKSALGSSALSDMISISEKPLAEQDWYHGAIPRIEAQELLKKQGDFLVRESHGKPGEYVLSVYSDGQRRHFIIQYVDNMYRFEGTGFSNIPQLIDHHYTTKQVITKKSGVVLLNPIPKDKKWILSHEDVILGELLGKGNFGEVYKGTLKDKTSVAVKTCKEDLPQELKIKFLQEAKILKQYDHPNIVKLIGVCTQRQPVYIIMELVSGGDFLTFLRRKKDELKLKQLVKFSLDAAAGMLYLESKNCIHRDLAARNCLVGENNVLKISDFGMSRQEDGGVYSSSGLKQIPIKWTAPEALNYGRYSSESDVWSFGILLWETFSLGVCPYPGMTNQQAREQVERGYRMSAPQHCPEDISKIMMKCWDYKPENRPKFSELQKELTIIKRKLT
# [7] = target: Tyrosine-protein kinase Blk (Homo sapiens, UniProt P51451); format: functional;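 note: obtained as one member of a kinome-wide kinase assay panel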
# Tyrosine-protein kinase Blk, sequence (P51451 whole entry): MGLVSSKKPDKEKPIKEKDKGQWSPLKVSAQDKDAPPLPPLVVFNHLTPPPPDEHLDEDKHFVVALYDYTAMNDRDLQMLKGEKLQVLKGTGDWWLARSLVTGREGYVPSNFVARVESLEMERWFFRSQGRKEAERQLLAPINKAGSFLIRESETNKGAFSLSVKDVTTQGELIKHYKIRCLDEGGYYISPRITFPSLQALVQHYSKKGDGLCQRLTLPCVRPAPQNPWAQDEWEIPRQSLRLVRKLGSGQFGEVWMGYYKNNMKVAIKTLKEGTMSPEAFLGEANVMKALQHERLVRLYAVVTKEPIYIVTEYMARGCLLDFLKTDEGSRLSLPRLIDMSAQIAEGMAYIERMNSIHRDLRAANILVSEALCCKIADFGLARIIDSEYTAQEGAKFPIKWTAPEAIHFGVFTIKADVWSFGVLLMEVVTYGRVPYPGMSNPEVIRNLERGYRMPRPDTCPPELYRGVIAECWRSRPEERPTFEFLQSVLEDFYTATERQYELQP
# [8] = target: Tyrosine-protein kinase Fyn (Homo sapiens, UniProt P06241); format: functional
# Tyrosine-protein kinase Fyn, sequence (P06241 whole entry): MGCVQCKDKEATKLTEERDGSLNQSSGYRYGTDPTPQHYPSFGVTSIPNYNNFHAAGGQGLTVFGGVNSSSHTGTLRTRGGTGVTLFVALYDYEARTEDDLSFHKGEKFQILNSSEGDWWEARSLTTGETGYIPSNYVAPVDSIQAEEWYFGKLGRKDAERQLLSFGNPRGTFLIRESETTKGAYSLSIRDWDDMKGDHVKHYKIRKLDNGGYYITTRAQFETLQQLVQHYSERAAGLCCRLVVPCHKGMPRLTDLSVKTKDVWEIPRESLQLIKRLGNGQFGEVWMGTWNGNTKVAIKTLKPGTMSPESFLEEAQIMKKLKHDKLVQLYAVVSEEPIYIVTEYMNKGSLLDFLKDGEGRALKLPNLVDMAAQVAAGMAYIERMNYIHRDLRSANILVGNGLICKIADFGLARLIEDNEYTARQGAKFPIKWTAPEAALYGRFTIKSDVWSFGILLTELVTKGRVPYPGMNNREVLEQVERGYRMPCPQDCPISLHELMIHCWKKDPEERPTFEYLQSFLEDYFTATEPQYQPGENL
# [9] = target: Tyrosine-protein kinase FRK (Homo sapiens, UniProt P42685); format: functional;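 note: FRK tested as one member of a kinome panel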
# Tyrosine-protein kinase FRK, sequence (P42685 whole entry): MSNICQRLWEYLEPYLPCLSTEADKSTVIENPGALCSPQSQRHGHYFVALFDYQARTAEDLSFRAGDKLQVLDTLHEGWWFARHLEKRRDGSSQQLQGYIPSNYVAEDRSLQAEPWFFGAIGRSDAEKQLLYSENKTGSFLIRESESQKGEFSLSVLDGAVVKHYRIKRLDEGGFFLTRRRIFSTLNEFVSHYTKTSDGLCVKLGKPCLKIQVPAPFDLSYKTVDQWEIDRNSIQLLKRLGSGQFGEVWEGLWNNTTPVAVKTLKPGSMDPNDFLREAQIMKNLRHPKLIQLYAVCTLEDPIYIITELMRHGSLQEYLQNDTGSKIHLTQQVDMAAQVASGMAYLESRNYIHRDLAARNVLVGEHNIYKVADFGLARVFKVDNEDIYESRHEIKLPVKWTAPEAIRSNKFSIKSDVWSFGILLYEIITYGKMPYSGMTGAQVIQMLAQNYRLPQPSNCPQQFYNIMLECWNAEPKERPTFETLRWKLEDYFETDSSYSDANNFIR
# [10] = target: T2, Sentrin-specific protease 8 (Homo sapiens, UniProt Q96LD8); format: functional;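 note: luminescence read-out of SENP8 inhibition, dose-response confirmation following an ultra-high-throughput screen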
# T2 sequence (Q96LD8 whole entry): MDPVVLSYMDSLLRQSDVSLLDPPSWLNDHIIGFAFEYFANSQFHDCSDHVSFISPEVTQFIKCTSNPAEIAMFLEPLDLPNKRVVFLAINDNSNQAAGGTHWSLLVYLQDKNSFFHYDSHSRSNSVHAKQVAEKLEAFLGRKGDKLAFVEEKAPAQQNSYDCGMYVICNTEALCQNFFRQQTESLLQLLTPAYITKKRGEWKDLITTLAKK
# [11] = target: T3, Heat shock factor protein 1 (Mus musculus, UniProt P38532); experiment: inhibition of MG132-induced HSE-luciferase signal, confirmation, cell-based, NIH3T3, luminescence, dose retest (AID 2382); format: functional;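 note: NIH3T3 fibroblasts with HSF1-driven luciferase reporter stressed by proteasome inhibitor MG132; luminescence from HSF1-driven luciferase expression after 8 hours of MG132 stress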
# T3 sequence (P38532 whole entry): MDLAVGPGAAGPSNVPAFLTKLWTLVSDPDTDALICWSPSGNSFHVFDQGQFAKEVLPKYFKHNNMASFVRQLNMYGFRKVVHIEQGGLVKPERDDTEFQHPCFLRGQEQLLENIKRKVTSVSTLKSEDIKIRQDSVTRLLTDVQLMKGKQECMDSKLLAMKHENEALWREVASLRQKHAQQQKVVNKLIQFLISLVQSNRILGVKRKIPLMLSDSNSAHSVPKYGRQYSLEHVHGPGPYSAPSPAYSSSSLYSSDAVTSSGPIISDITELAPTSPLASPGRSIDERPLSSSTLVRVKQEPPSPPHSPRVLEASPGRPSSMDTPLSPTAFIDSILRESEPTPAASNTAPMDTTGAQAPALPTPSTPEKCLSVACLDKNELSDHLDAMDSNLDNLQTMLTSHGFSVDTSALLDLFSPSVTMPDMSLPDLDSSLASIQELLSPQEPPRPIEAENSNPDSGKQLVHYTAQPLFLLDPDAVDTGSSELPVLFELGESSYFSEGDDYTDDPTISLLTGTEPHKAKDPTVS
# [12] = tested on: HT-1080; experiment: cytotoxicity in HT1080 fibrosarcoma cells, cell-based, fluorescence readout (AID 620); format: functional; conditions: Homo sapiens
smiles,measurement,setting,value
CCn1nc(/C=C/c2ccccc2)nc2c(=O)n(C)c(=O)nc1-2,AC50,[1],487 nM (active)
same,EC50,[2],789 nM (active)
same,AC50,[3],184 nM (active)
same,IC50,[4],> 80000 nM (inactive)
COc1cc2c(cc1Nc1nc(Nc3cccc(F)c3C(N)=O)c3cc[nH]c3n1)N(C(=O)CN(C)C)CC2,Ki,[5],> 2510 nM (inactive)
same,Ki,[6],1.58 nM (active)
same,Ki,[7],> 1580 nM (inactive)
same,Ki,[8],> 6310 nM (inactive)
same,Ki,[9],> 2510 nM (inactive)
CC(C)c1ccc(-c2nnn(CCC(=O)O)n2)cc1,IC50,[10],7270 nM (active)
same,EC50,[11],< 160 nM (active)
same,EC50,[12],> 50000 nM (not active)
